Measurements from PubChem BioAssay AID1963865 (Molecular Pharmacology Branch, DTP, NCI, 2024).

Tested on: KRAS PDC multicell spheroid viability
Test: Anticancer human tumor 825966-067-R-J1-PDC patient-derived colon carcinoma cell line growth inhibition [KRAS2]
Conditions: for IC50: curve of first compound; for viability, T/C: stronger effect = lower value
Procedure, shortened: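 Combination screen of spheroid viability in tumor-cell co-cultures with endothelial (HUVEC) and mesenchymal stem cell stroma. Each agent was tested in half-log dilutions, topping at clinical Cmax or at 10 microM without a known Cmax.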

[1] = second compound 0.1 µM, first compound 0.0316 µM
[2] = second compound 0.1 µM, first compound 0.1 µM
[3] = second compound 0.316 µM, first compound 0.0316 µM
[4] = second compound 0.316 µM, first compound 0.1 µM
[5] = second compound 1 µM, first compound 0.0316 µM
[6] = second compound 1 µM, first compound 0.1 µM
[7] = second compound 3.16 µM, first compound 0.0316 µM
[8] = second compound 3.16 µM, first compound 0.1 µM
[9] = second compound 10 µM, first compound 0.0316 µM
[10] = second compound 10 µM, first compound 0.1 µM
[11] = second compound 0.1 µM, first compound 0.316 µM
[12] = second compound 0.1 µM, first compound 1 µM
[13] = second compound 0.1 µM, first compound 3.16 µM
[14] = second compound 0.1 µM, first compound 10 µM
[15] = second compound 0.316 µM, first compound 0.316 µM
[16] = second compound 0.316 µM, first compound 1 µM
[17] = second compound 0.316 µM, first compound 3.16 µM
[18] = second compound 0.316 µM, first compound 10 µM
[19] = second compound 1 µM, first compound 0.316 µM
[20] = second compound 1 µM, first compound 1 µM
[21] = second compound 1 µM, first compound 3.16 µM
[22] = second compound 1 µM, first compound 10 µM
[23] = second compound 3.16 µM, first compound 0.316 µM
[24] = second compound 3.16 µM, first compound 1 µM
[25] = second compound 3.16 µM, first compound 3.16 µM
[26] = second compound 3.16 µM, first compound 10 µM
[27] = second compound 10 µM, first compound 0.316 µM
[28] = second compound 10 µM, first compound 1 µM
[29] = second compound 10 µM, first compound 3.16 µM
[30] = second compound 10 µM, first compound 10 µM
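Also: spheroids exposed to compounds for 7 days.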
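For viability, T/C in this document: 100% = DMSO vehicle control viability.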

| SMILES | IC50 (second compound 0.1 µM) | IC50 (second compound 0.316 µM) | IC50 (second compound 1 µM) | IC50 (second compound 3.16 µM) | IC50 (second compound 10 µM) | viability, T/C [1] | viability, T/C [2] | viability, T/C [3] | viability, T/C [4] | viability, T/C [5] | viability, T/C [6] | viability, T/C [7] | viability, T/C [8] | viability, T/C [9] | viability, T/C [10] | viability, T/C [11] | viability, T/C [12] | viability, T/C [13] | viability, T/C [14] | viability, T/C [15] | further results |
| --- | --- | --- | --- | --- | --- | --- | --- | --- | --- | --- | --- | --- | --- | --- | --- | --- | --- | --- | --- | --- | --- |
| CN(C)C/C=C/C(=O)Nc1cc2c(Nc3ccc(F)c(Cl)c3)ncnc2cc1O[C@H]1CCOC1 + CC1OCC2(CCN(c3cnc(Sc4ccnc(N)c4Cl)c(N)n3)CC2)C1N | > 0.1 µM | > 0.1 µM | > 0.1 µM | > 0.1 µM | > 0.1 µM | 91.4% | 80.2% | 105% | 101% | 84.2% | 96.8% | 88.1% | 85.9% | 94.9% | 124% |  |  |  |  |  | viability, T/C (second compound 0.1 µM, first compound 0.000316 µM): 103%; viability, T/C (second compound 0.1 µM, first compound 0.001 µM): 100%; viability, T/C (second compound 0.1 µM, first compound 0.00316 µM): 126%; viability, T/C (second compound 0.1 µM, first compound 0.01 µM): 120%; viability, T/C (second compound 0.316 µM, first compound 0.000316 µM): 93.4%; viability, T/C (second compound 0.316 µM, first compound 0.001 µM): 86.6%; viability, T/C (second compound 0.316 µM, first compound 0.00316 µM): 94.2%; viability, T/C (second compound 0.316 µM, first compound 0.01 µM): 79.1%; viability, T/C (second compound 1 µM, first compound 0.000316 µM): 104%; viability, T/C (second compound 1 µM, first compound 0.001 µM): 118%; viability, T/C (second compound 1 µM, first compound 0.00316 µM): 99%; viability, T/C (second compound 1 µM, first compound 0.01 µM): 81.8%; viability, T/C (second compound 3.16 µM, first compound 0.000316 µM): 100%; viability, T/C (second compound 3.16 µM, first compound 0.001 µM): 105%; viability, T/C (second compound 3.16 µM, first compound 0.00316 µM): 93.9%; viability, T/C (second compound 3.16 µM, first compound 0.01 µM): 86.3%; viability, T/C (second compound 10 µM, first compound 0.000316 µM): 81.1%; viability, T/C (second compound 10 µM, first compound 0.001 µM): 87.2%; viability, T/C (second compound 10 µM, first compound 0.00316 µM): 108%; viability, T/C (second compound 10 µM, first compound 0.01 µM): 107% |
| COC(=O)c1ccc2c(C(=Nc3ccc(N(C)C(=O)CN4CCN(C)CC4)cc3)c3ccccc3)c(O)[nH]c2c1 + CC1OCC2(CCN(c3cnc(Sc4ccnc(N)c4Cl)c(N)n3)CC2)C1N | 0.739 µM | 1.61 µM | 0.611 µM | 0.57 µM | < 0.0316 µM | 100% | 77.4% | 83.5% | 85.1% | 96% | 83.1% | 89.7% | 92.2% | 24.4% | 32.6% | 83.1% | 38.8% | 0.34% | 0.23% | 84.3% | viability, T/C [16]: 88.5%; viability, T/C [17]: 0.25%; viability, T/C [18]: 0.21%; viability, T/C [19]: 92.5%; viability, T/C [20]: 19.6%; viability, T/C [21]: 0.22%; viability, T/C [22]: 0.2%; viability, T/C [23]: 86.4%; viability, T/C [24]: 15.2%; viability, T/C [25]: 0.17%; viability, T/C [26]: 0.19%; viability, T/C [27]: 5.99%; viability, T/C [28]: 2.24%; viability, T/C [29]: 0.2%; viability, T/C [30]: 0.32% |
| O=C(c1cc(Cc2n[nH]c(=O)c3ccccc23)ccc1F)N1CCN(C(=O)C2CC2)CC1 + CC1OCC2(CCN(c3cnc(Sc4ccnc(N)c4Cl)c(N)n3)CC2)C1N | > 10 µM | > 10 µM | > 10 µM | > 10 µM | 0.985 µM | 78.2% | 67.3% | 79.2% | 76.2% | 77.8% | 91.5% | 105% | 109% | 104% | 89.2% | 82% | 71.1% | 80.6% | 81.4% | 92.6% | viability, T/C [16]: 67.6%; viability, T/C [17]: 85%; viability, T/C [18]: 86.6%; viability, T/C [19]: 75.7%; viability, T/C [20]: 68%; viability, T/C [21]: 62.5%; viability, T/C [22]: 82.2%; viability, T/C [23]: 95.1%; viability, T/C [24]: 102%; viability, T/C [25]: 102%; viability, T/C [26]: 78.1%; viability, T/C [27]: 77.5%; viability, T/C [28]: 54.9%; viability, T/C [29]: 17.4%; viability, T/C [30]: 17.6% |
